Experiments:
Assay type in all cases: cell-based, human cytomegalovirus (HCMV)
[1] = system: HCMV AD169 mutant rAIC246-7 (UL56 L241P); assay: CPE-RA, letermovir-selected mutant; settings: for EC50: Human betaherpesvirus 5, AD169, rAIC246-7 (UL56 L241P), CPE reduction assay, mean ± SD
Protocol: (§1) HCMV Cytopathic Effect Reduction Assay (CPE-RA)
(§2) CPE-RAs were performed basically as described elsewhere (HCMV replication assay). In brief, the addition of 2 μl test compound of 50, 5, 0.5, 0.05, 0.005, and 0.0005 mM DMSO stock solutions to 100 μl cell culture medium in duplicate was followed by serial 2-fold dilutions in 96-well microtiter plates. Each well was supplemented with 150 μl of either a suspension of 1×10^4 NHDF cells mixed with cell-free HCMV (multiplicity of infection (MOI), 0.03) or a suspension of 1×10^4 to 3×10^4 HCMV-infected and uninfected NHDF cells (MOI, 0.001 to 0.002). Non-infected and non-treated cells served as controls on each plate. Final compound concentrations ranged between 250 and 0.00005 μM. Plates were incubated for 6 to 7 days at 37° C. or until the virus control reached 100% CPE. A mixture containing 20% Giemsa stain (Merck) and 5% formalin solution (Merck) was added to the wells for fixation and staining. After extensive washing, plates were dried at 56° C. followed by visual evaluation using an overhead microscope (plaque magnifier; Tecnorama Zürich). Each assay was performed at least in triplicate, and standard deviations were calculated. The assay plate data were used to calculate the EC50 (CPE-RA), i.e., the concentration of drug that inhibits the CPE by 50% compared with an untreated virus-infected control.
(§3) Drug-resistant HCMV AD169 mutants were selected by the single-step selection method or by serial passage of the virus in the presence of increasing concentration of Letermovir. Briefly, 5×10^3 AD169-infected NHDF cells/well (MOI, 0.03 PFU/cell) were seeded into the wells of 30 96-well microtiter plates. The infection was allowed to proceed under the exposure of 50 nM Letermovir (˜10×EC50) until a CPE developed in one or more of the compound-treated wells (indicative of resistant virus breakthrough). Non-infected and non-treated cells served as controls on each plate. Mutant virus amplification was accomplished after cultures achieved maximum CPE by the passage of cell-free supernatant virus in the presence of 50 nM Letermovir. The resultant Letermovir-resistant progeny virus mutants were plaque purified three times by limiting dilutions in the presence of Letermovir. The stability of resistance was tested by serially passaging plaque-purified viruses without selective pressure (8 to 10 times). The resistant phenotype of the mutants was confirmed by CPE reduction assays.

[2] = system: HCMV AD169 mutant rAIC246-9 (UL56 R369G); assay: CPE-RA, letermovir-selected mutant; settings: for EC50: Human betaherpesvirus 5, AD169, rAIC246-9 (UL56 R369G), CPE reduction assay, mean ± SD
Protocol: as §1, §2, §3

[3] = system: HCMV AD169 mutant rAIC246-10 (UL56 V236M); assay: CPE-RA, letermovir-selected mutant; settings: for EC50: Human betaherpesvirus 5, AD169, rAIC246-10 (UL56 V236M), CPE reduction assay, mean ± SD
Protocol: as §1, §2, §3

[4] = system: HCMV AD169 mutant rAIC246-6 (UL56 R369M); assay: CPE-RA, letermovir-selected mutant; settings: for EC50: Human betaherpesvirus 5, AD169, rAIC246-6 (UL56 R369M), CPE reduction assay, mean ± SD
Protocol: as §1, §2, §3

RV-HG-UL56 mutants = assay: GFP-RA, drug susceptibility profile of the virus mutants; settings: fluorescence reduction assays; for BAY 38-4766 and BDCRB with the exception of the strain carrying UL56 R369M
Protocol: HCMV Fluorescence Reduction Assay (GFP-RA)
The susceptibilities of recombinant HCMV laboratory strains expressing GFP were determined by a GFP-based fluorescence reduction assay. For standard assays, 1.5×10^4 NHDF cells/well were cultured in black 96-well plates (Greiner Bio-One, Germany) and infected with either HCMV-GFP (MOI, 0.1) or RV-HG (MOI, 0.2 to 0.5). After virus adsorption, the virus inoculum was replaced with 200 μl fresh medium. Thereafter, 100 μl medium containing the test compounds was added to wells of horizontal row G, followed by serial 3-fold dilutions up to row A. All drug concentrations were tested at least in duplicate. Wells of the horizontal row H served as the virus control. Plates were incubated at 37° C. for 7 days. The medium was replaced by 200 μl PBS, and GFP units (GFPU) were determined by a charge-coupled-device-camera-based fluorescence detector (FluoBox; Bayer Technology Services GmbH, Leverkusen, Germany), which captures 96 images simultaneously. Drug effects were calculated as a percentage of reduction in GFPU in the presence of each drug concentration compared to the GFPU determined in the absence of drug. EC50 and EC90 values (drug concentrations producing 50% and 90% reduction in GFPU) were calculated using nonlinear regression curve fit with a variable slope. GraphPad Prism 3.02 or 4.0 software (GraphPad Software Inc., La Jolla, Calif.) was used for all analyses.
The HCMV AD169-derived bacterial artificial chromosome (BAC) pHG served as the backbone for the construction of the mutant viruses. The markerless introduction of point mutations into pHG was done using a two-step recombination protocol according to the en passant method. Briefly, a recombination fragment containing the I-SceI-AphAI cassette from plasmid pEPKan-S was obtained by PCR using primers containing ˜60 bp of homology to the intended integration site in ORF UL56 of BAC pHG and ˜20 bp specific for pEPKan-S. This fragment was electroporated into Escherichia coli GS1783 that harbored the pHG BAC. […] After successful kanamycin selection, all non-HCMV sequences were removed by an intrabacterial ISceI digest and a subsequent second Red recombination, resulting in the scarless repair of the mutated UL56 gene in the background of BAC pHG. […] To reconstitute virus mutants, the recombinant BACs were transfected into permissive MRC5 cells. At least two independent virus clones per mutation were generated and evaluated.

Row | SMILES | EC50 [1] [nM] | EC50 [2] [nM] | EC50 [3] [nM] | EC50 [4] [nM] | sensitivity of the RV-HG-UL56 mutants compared with the parental wild-type virus RV-HG (RV-HG-UL56 mutants) | Resistance index (RI) = letermovir-EC50 mutant virus/letermovir-EC50 wild-type virus ([1]; rAIC246-7 vs AD169) | Resistance index (RI) = letermovir-EC50 mutant virus/letermovir-EC50 wild-type virus ([2]; rAIC246-9 vs AD169) | Resistance index (RI) = letermovir-EC50 mutant virus/letermovir-EC50 wild-type virus ([3]; rAIC246-10 vs AD169) | Resistance index (RI) = letermovir-EC50 mutant virus/letermovir-EC50 wild-type virus ([4]; rAIC246-6 vs AD169)
1 | Nc1nc(O)c2ncn(COC(CO)CO)c2n1 [Ganciclovir] | 2200 ± 600 | 1700 ± 200 | 1700 ± 300 | 2900 ± 900 | did not differ |  |  |  | 
2 | COc1cccc(N2CCN(C3=Nc4c(F)cccc4[C@H](CC(=O)O)N3c3cc(C(F)(F)F)ccc3OC)CC2)c1 [Letermovir, (S)-{8-fluoro-2-[4-(3-methoxyphenyl)-1-piperazinyl]-3-[2-methoxy-5-(trifluoromethyl)phenyl]-3,4-dihydro-4-quinazolinyl}acetic acid] | 920 ± 120 | 60 ± 40 | 70 ± 20 | 80 ± 20 | resistant | 164 | 11 | 13 | 14

From patent US20140193802A1, “IDENTIFICATION OF AN ALTERED THERAPEUTIC SUSCEPTIBILITY TO ANTI-HCMV COMPOUNDS AND OF A RESISTANCE AGAINST ANTI-HCMV COMPOUNDS” (priority 2012, published 2014)
